Data reported in ChEMBL document CHEMBL3286288, “Diterpenes from the endangered goldenrod Solidago shortii” (2014).
The source made the active and inactive calls. The rule behind the calls is not given here.

Key:
Staphylococcus aureus [1] = assay: Antibacterial activity against methicillin-resistant Staphylococcus aureus 108 assessed as growth inhibition up to 16 ug/ml after 24 hrs by broth microdilution method; type: functional, organism-based
NCI-H460 = assay: Growth inhibition of human NCI-H460 cells after 72 hrs at 10 uM; type: functional, cell-based
Staphylococcus aureus [2] = assay: Antibacterial activity against methicillin-susceptible Staphylococcus aureus ATCC 25923 assessed as growth inhibition at 8 ug/ml after 24 hrs by broth microdilution method relative to control; type: functional; conditions: ATCC 25923, 24 h, read-out: GI
Staphylococcus aureus [3] = assay: Antibacterial activity against methicillin-susceptible Staphylococcus aureus ATCC 25923 assessed as growth inhibition at 64 ug/ml after 24 hrs by broth microdilution method; type: functional, organism-based

Structure (SMILES)	growth inhibition (GI) (Staphylococcus aureus [1])	growth inhibition (GI) (NCI-H460)	inhibition of growth at 8 µg/mL (Staphylococcus aureus [2])	growth inhibition (GI) (Staphylococcus aureus [3])
C[C@@H]1CC[C@]2(O)[C@H](C[C@H](O)C2(C)C)C(=O)[C@]1(C)CCC1=CC(=O)OC1	inactive	inactive	56%	–
C/C=C(/C)C(=O)O[C@H]1C[C@]2(C)[C@@H](CC[C@@H](NC(C)=O)[C@]2(C)O)[C@](C)(CCC2=CC(=O)OC2)[C@@H]1C	inactive	inactive	–	–
C/C=C(/C)C(=O)O[C@H]1C[C@]2(C)[C@@H](CC[C@@H](OC(=O)C(F)(F)F)[C@]2(C)O)[C@](C)(CCC2=CC(=O)OC2)[C@@H]1C	inactive	inactive	–	–
C[C@@H]1C[C@H]2C(=O)C(C)(C)[C@@H](O)CC[C@]2(O)[C@]1(C)CCC1=CC(=O)OC1	inactive	inactive	66%	–
C/C=C(/C)C(=O)O[C@H]1C[C@]2(C)[C@@H](CC[C@H]3O[C@]32C)[C@](C)(CCC2=CC(=O)OC2)[C@@H]1C	inactive	inactive	–	inactive
C/C=C(/C)C(=O)O[C@H]1C[C@]2(C)[C@@H](CC[C@@H](O)[C@]2(C)O)[C@](C)(CCC2=CC(=O)OC2)[C@@H]1C	inactive	inactive	–	–
